Publication PMC10599993, “The PTPN2/PTPN1 inhibitor ABBV-CLS-484 unleashes potent anti-tumour immunity” (Nature, 2023)

Experiments:
Experiment in all cases: biochemical
Parameters in all cases: Kinase selectivity panel, IC50 of AC484 (Supplementary Table 1)
[1] = target: T1, PKCbeta1 (Homo sapiens, UniProt P05771)
T1 construct: gene PRKCB; isoform beta1

[2] = target: Rock1 (Homo sapiens, UniProt Q13464)
[3] = target: T2, Aurora 1 (Homo sapiens, UniProt Q96GD4)
T2 construct: gene AURKB

[4] = target: T3, MST1 (Homo sapiens, UniProt Q13043)
T3 construct: gene STK4
T3 sequence (Q13043 whole entry): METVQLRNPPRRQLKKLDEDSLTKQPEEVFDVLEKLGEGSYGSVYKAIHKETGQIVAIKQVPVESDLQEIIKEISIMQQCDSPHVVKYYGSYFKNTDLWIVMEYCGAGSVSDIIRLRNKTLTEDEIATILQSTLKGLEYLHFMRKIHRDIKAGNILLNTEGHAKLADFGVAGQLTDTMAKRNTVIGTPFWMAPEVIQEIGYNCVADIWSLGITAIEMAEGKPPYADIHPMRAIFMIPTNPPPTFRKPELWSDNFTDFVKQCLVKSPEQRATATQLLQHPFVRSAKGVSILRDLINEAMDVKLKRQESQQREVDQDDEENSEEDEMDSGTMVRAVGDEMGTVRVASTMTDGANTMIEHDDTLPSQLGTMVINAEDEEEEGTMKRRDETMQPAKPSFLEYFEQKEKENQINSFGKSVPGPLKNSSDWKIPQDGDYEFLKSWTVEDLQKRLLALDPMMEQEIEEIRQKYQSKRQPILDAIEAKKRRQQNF

[5] = target: MAP4K4 (Homo sapiens, UniProt O95819)
[6] = target: T4, TrkC (Homo sapiens, UniProt Q16288)
T4 construct: gene NTRK3

[7] = target: T5, PKCepsilon (Homo sapiens, UniProt Q02156)
T5 construct: gene PRKCE

[8] = target: TEC (Homo sapiens, UniProt P42680)
[9] = target: T6, Ck1alpha1 (Homo sapiens, UniProt P48729)
T6 construct: gene CSNK1A1
T6 sequence (P48729 whole entry): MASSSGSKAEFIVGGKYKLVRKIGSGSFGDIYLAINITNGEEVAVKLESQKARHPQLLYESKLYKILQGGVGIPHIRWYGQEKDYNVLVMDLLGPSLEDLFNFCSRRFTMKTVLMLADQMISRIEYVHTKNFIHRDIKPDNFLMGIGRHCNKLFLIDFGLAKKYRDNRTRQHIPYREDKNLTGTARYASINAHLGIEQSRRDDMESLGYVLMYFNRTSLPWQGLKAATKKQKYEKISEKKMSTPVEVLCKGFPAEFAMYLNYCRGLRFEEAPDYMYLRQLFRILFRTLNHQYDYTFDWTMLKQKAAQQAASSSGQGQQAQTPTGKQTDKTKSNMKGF

[10] = target: MINK1 (Homo sapiens, UniProt Q8N4C8)
[11] = target: T7, PKG1A (Homo sapiens, UniProt Q13976)
T7 construct: gene PRKG1; isoform 1 alpha

[12] = target: Syk (Homo sapiens, UniProt P43405)
[13] = target: SGK1 (Homo sapiens, UniProt O00141)
[14] = target: T8, Erk2 (Homo sapiens, UniProt P28482)
T8 construct: gene MAPK1

[15] = target: JAK3 (Homo sapiens, UniProt P52333)
[16] = target: MAP4K3 (Homo sapiens, UniProt Q8IVH8)
Sequence of MAP4K3 (Q8IVH8 whole entry): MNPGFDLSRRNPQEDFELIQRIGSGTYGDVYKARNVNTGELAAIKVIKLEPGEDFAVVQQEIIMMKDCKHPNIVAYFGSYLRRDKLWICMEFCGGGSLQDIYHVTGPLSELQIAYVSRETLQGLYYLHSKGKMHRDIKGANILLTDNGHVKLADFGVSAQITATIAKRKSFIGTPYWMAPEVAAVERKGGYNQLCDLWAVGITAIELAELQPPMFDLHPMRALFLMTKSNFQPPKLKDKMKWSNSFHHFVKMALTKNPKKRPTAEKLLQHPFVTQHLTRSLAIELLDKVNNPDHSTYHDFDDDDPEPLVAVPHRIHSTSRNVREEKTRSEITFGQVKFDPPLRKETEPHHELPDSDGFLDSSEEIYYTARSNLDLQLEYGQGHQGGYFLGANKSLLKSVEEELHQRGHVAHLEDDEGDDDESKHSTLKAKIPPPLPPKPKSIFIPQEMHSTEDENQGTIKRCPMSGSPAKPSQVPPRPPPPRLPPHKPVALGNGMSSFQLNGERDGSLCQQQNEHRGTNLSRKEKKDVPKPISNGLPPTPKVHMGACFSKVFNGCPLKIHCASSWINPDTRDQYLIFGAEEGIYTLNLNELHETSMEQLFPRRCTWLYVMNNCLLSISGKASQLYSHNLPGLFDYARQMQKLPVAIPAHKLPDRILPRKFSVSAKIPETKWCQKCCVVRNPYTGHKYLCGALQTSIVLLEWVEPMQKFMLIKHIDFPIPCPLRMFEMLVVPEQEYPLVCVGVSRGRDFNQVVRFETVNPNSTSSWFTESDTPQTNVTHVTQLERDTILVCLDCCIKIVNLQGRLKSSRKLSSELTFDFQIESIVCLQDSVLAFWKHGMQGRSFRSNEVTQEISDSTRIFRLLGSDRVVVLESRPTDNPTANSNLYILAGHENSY

[17] = target: TAOK2 (Homo sapiens, UniProt Q9UL54)
[18] = target: T9, PKCzeta (Homo sapiens, UniProt Q05513)
T9 construct: gene PRKCZ
T9 sequence (Q05513 whole entry): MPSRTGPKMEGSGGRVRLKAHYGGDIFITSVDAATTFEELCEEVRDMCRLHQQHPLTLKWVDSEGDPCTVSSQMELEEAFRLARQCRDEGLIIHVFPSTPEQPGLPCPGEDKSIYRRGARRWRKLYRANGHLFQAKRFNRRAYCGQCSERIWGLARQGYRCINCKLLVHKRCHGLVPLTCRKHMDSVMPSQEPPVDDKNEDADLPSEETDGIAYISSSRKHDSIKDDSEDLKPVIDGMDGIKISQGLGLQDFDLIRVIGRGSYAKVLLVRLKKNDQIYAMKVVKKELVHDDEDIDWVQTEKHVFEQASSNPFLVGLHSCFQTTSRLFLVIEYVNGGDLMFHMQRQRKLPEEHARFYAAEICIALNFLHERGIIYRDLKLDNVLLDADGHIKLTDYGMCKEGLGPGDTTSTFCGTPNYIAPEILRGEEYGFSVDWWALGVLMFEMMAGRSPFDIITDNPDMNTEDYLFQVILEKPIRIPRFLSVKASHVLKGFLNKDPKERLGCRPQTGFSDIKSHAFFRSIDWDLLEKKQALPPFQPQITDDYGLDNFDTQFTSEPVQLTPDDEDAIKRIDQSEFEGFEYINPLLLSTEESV

[19] = target: Akt1 (Homo sapiens, UniProt P31749)
Sequence of Akt1 (P31749 whole entry): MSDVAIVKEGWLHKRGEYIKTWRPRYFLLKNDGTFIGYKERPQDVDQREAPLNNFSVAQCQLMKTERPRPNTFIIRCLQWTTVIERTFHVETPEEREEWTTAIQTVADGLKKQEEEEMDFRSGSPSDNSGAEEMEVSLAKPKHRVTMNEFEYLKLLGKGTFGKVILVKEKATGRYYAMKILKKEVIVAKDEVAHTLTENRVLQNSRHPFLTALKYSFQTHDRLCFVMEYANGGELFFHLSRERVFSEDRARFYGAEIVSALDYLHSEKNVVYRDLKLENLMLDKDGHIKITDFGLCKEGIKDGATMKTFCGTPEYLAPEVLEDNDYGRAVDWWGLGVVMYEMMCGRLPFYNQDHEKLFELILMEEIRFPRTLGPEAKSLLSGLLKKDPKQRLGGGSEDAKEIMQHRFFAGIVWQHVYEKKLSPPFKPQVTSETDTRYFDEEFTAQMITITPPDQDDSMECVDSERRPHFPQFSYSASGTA

[20] = target: CLK2 (Homo sapiens, UniProt P49760)
[21] = target: Src (Homo sapiens, UniProt P12931)
[22] = target: CSK (Homo sapiens, UniProt P41240)
[23] = target: ALK (Homo sapiens, UniProt Q9UM73)
Sequence of ALK (Q9UM73 whole entry): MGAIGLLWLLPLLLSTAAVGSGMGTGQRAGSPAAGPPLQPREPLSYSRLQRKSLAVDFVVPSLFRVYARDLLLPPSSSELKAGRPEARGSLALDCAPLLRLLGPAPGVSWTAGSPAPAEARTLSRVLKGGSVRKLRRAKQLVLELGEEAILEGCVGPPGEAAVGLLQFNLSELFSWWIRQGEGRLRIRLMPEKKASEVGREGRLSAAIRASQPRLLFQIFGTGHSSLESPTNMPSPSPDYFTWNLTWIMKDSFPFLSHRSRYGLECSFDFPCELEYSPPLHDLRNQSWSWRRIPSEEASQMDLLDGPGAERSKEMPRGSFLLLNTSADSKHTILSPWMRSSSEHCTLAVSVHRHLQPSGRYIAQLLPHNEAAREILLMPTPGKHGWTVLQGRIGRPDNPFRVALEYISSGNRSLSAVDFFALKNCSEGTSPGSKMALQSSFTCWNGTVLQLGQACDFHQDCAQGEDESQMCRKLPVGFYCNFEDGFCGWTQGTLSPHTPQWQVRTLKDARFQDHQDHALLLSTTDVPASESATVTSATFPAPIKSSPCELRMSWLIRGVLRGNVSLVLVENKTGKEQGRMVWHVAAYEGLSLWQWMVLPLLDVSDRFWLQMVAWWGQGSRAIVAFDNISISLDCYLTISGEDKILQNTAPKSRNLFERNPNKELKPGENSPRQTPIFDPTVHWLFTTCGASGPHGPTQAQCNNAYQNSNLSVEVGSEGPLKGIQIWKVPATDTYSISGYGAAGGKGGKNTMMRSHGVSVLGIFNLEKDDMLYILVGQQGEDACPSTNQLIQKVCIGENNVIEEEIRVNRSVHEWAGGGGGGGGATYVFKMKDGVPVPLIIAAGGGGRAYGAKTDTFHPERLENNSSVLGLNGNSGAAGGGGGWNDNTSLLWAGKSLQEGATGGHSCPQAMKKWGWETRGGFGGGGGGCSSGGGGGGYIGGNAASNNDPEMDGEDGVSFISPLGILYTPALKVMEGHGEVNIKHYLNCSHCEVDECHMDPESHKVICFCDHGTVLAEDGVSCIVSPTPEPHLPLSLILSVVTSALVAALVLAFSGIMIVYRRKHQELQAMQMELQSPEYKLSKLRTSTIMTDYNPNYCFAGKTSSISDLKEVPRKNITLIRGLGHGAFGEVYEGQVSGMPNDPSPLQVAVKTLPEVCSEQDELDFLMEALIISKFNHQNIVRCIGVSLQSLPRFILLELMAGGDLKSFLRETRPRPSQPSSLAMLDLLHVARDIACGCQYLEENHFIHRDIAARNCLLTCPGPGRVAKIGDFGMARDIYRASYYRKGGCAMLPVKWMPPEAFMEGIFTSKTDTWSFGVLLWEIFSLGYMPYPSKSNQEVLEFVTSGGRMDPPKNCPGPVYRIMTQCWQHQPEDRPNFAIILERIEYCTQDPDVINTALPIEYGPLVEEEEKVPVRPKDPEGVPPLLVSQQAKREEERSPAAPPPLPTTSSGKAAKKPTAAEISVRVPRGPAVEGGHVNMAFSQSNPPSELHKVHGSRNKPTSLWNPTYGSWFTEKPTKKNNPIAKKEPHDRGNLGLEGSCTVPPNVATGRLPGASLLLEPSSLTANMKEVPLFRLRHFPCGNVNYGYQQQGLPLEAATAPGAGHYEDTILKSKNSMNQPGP

[24] = target: T10, IKKE (Homo sapiens, UniProt Q14164)
T10 construct: gene IKBKE

[25] = target: Plk3 (Homo sapiens, UniProt Q9H4B4)
[26] = target: MAP4K1 (Homo sapiens, UniProt Q92918)
[27] = target: T11, PKCbeta2 (Homo sapiens, UniProt P05771)
T11 construct: gene PRKCB; isoform beta2

[28] = target: MERTK (Homo sapiens, UniProt Q12866)

Measured: IC50

T2 sequence (Q96GD4 whole entry): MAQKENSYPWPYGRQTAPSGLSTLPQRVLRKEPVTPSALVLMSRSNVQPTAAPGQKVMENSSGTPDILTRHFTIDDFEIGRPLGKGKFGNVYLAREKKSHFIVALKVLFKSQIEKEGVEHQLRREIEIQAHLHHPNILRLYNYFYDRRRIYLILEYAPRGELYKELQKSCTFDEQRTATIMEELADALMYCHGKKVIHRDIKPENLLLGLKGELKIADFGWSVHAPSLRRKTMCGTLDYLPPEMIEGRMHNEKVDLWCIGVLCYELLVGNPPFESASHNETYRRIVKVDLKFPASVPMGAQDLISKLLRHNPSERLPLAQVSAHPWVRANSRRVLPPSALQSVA

CC(C)CCN[C@@H]1CCc2cc(O)c(N3CC(=O)NS3(=O)=O)c(F)c2C1 [AC484, ABBV-CLS-484]
> 10 µM: all assays above
